This note sets out measurements from patent US8748412B2, “Phenylalanine derivatives and their use as non-peptide GLP-1 receptor modulators” (Argusina Bioscience Inc., priority 2011, dated 2014).

Molecules are shown by their SMILES.

T1 sequence (P43220 24-463): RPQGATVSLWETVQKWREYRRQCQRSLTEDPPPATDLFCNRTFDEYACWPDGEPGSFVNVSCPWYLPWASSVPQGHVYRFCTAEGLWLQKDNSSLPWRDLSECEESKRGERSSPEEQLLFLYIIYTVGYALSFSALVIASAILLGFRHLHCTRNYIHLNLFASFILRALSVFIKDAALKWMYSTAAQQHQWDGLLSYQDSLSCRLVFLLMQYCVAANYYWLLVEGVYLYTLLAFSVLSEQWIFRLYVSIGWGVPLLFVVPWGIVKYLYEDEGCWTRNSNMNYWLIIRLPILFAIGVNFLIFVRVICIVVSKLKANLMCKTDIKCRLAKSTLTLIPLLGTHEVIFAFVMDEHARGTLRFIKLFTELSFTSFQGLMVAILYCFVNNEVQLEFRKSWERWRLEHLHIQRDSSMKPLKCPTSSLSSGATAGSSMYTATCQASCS

The first assay addresses T1, human GLP1R (Homo sapiens, UniProt P43220).
T1 construct: expressed in transfected cells; host or cells: CHO cells (ATCC), transient transfection with pCMV-human GLP1R
Kind of assay: Human GLP-1 receptor transfected cell assay (MRE/CRE-luciferase reporter gene, agonist activity). The format is cell-based. The settings on record: 6 h; concentration 1 μM; read-out: Activity (agonist), percentage of the activity of the control. On the procedure: The glucagon-like peptide I receptor (GLP1R) is a class B Gs-coupled membrane receptor, an agonist of which activates adenylate cyclase (AC) and elevates intracellular cAMP level. In turn, the high content of secondary messengers can activate the cAMP response element binding protein (CREB), which can translocate into nucleus to activate gene transcription.
A reporter gene based screening assay was established to measure the effect of a compound on GLP1R. In this assay, a compound was incubated with CHO cells transiently transfected with a human GLP1R plasmid and a multiple response element (MRE)/cAMP response element (CRE)-driven luciferase reporter plasmid. Once luciferase was induced by the compound, its specific substrate can be activated to produce light signal for measurement.
Materials used in this assay included: (i) cell line: Chinese hamster ovary (CHO) cells (ATCC); (ii) fetal bovine serum (FBS) (Biochrom Co.); (iii) culture medium: RPMI1640 (Invitrogen Co.) supplemented with 10% FBS; (iv) LIPOFECTAMINE™ 2000 Reagent (Invitrogen Co.); (v) plasmids: pCMV-human GLP1R and pGL3-1905 reporter plasmid; (vi) GLP1 (7-36 amide) peptide (Sigma Co.); and (vii) BRIGHT-GLO™ Luciferase Assay System (Promega Co.).
Instruments used in this assay included: (i) Form a carbon dioxide incubator (Thermo Form a Co.); and (ii) Flexstation 3 (Molecular Device Co.).
Before transfection, CHO cells were plated into a 6-well culture plate at 800,000/2 mL/well, and cultured at 37° C. in 5% CO2 overnight. On the transfection day, cells were transfected with receptor plasmid and reporter plasmid using LIPOFECTAMINE™ 2000 reagent. After 6-hour transfection, cells were digested and seeded into 96-well plates at 20,000/100 μL/well. After 14-16 hour incubation, transfected cells were washed with 100 μL serum-free RPMII 640 medium first, and then added 50 μL of the culture medium. The GLP-1 standard and test compounds were respectively diluted to a series of concentrations, which were then added into the above 96-well culture plate at 50 μL/well. The cells were incubated at 37° C. in 5% CO2 for 6 hrs. The activity of luciferase was detected using BRIGHT-GLO™ Luciferase Analytic System, and the reading was performed with a Flexstation3 plate reader machine.
For orientation: Reporter assays use an easily measured gene product as a stand-in for the process of interest.
For `Cc1ccc(-c2nc(C(=O)NC(Cc3ccc(C#Cc4ccc(NC(=O)OC(C)(C)C)cc4)c(F)c3)C(=O)O)cs2)cc1` (stereo not shown) [Compound 3E], the activation at 1 µM was 40 to 60%.

As for `CC(C)(C)OC(=O)Nc1ccc(-c2nc(-c3ccc(CC(NC(=O)c4cc(-c5ccc(Cl)cc5F)c[nH]4)C(=O)O)cc3F)no2)cc1` (stereo not shown) [Compound 3L], the activation at 1 µM is 20 to 40%.

On to `CC(C)(C)OC(=O)Nc1ccc(-c2nc(-c3ccc(CC(NS(=O)(=O)c4ccc(Br)c(F)c4)C(=O)O)cc3F)no2)cc1` (stereo not shown) [Compound 3O], for which the activation at 1 µM was 20 to 40%.

As for `Cc1ccc(S(=O)(=O)NC(Cc2ccc(-c3noc(-c4ccc(NC(=O)OC(C)(C)C)cc4)n3)c(F)c2)C(=O)O)cc1Cl` (stereo not shown) [Compound 3P, 3-{4-[5-(4-tert-Butoxcarbonylamino-phenyl)-[1,2,4]oxadiazol-3-yl]-3-fluorophenyl}-2-(3-chloro-4-methyl-benzenesulfonylamino)-propionic acid], the activation at 1 µM lay in the range of 40 to 60%.

Regarding `CC(C)(C)OC(=O)Nc1ccc(-c2nc(-c3ccc(C[C@@H](NS(=O)(=O)c4ccc(-c5ccccc5)cc4)C(=O)O)cc3F)no2)cc1` [Compound 3Q], the activation at 1 µM was in the range of 20 to 40%.

As for `CC1CCN(c2cccc(C(=O)NC(Cc3ccc(-c4noc(-c5ccc(NC(=O)OC(C)(C)C)cc5)n4)c(F)c3)C(=O)O)c2)CC1` (stereo not shown) [Compound 3S], the activation at 1 µM is > 60%.

As to `CC(C)(C)OC(=O)Nc1ccc(-c2nc(-c3ccc(CC(NC(=O)c4cccc(NCc5ccccc5)c4)C(=O)O)cc3F)no2)cc1` (stereo not shown) [Compound 3U], the activation at 1 µM lay in the range of 20 to 40%.

As to `CC1CCN(S(=O)(=O)NC(Cc2ccc(-c3noc(-c4ccc(NC(=O)OC(C)(C)C)cc4)n3)c(F)c2)C(=O)O)CC1` (stereo not shown) [Compound 3W], the activation at 1 µM lay within 40 to 60%.

Staying with this assay, now noted: 6 h; concentration 3 μM; read-out: Activity (agonist), percentage of the activity of the control.
Turning to `Cc1cc(-n2cc(C(=O)NC(Cc3ccc(-c4noc(-c5ccc(NC(=O)OC(C)(C)C)cc5)n4)c(F)c3)C(=O)O)cn2)ccc1F` (stereo not shown) [Compound 3G], the activation at 3 µM lay in the range of 40 to 60%.

Regarding `CC(C)(C)OC(=O)Nc1ccc(-c2nc(-c3ccc(CC(NC(=O)c4cn(Cc5ccc(F)cc5)nn4)C(=O)O)cc3F)no2)cc1` (stereo not shown) [Compound 3K], the activation at 3 µM lay in the range of 20 to 40%.

In the case of `CC(C)(C)OC(=O)Nc1ccc(-c2nc(-c3ccc(CC(NC(=O)c4cc(-c5ccc(F)cc5)n[nH]4)C(=O)O)cc3F)no2)cc1` (stereo not shown) [Compound 3R], the activation at 3 µM was > 60%.

In the case of `CC(C)(C)OC(=O)Nc1ccc(-c2nc(-c3ccc(CC(NC(=O)c4ccc(N5CCOCC5)cc4)C(=O)O)cc3F)no2)cc1` (stereo not shown) [Compound 3V], the activation at 3 µM was 20 to 40%.

Staying with this assay, now noted: 6 h; concentration 3.16 μM; read-out: Activity (agonist), percentage of the activity of the control.
As to `Cc1cc(-c2nc(C(=O)NC(Cc3ccc(-c4noc(-c5ccc(NC(=O)OC(C)(C)C)cc5)n4)c(F)c3)C(=O)O)c[nH]2)ccc1F` (stereo not shown) [Compound 2Q], the activation at 3.16 µM was > 60%.

`Cc1ccc(-c2nc(C(=O)NC(Cc3ccc(-c4noc(-c5ccc(NC(=O)OC(C)(C)C)cc5)n4)c(F)c3)C(=O)O)c[nH]2)cc1` (stereo not shown) [Compound 2R]: the activation at 3.16 µM was > 60%.

In the case of `CC(C)(C)OC(=O)Nc1ccc(-c2nc(-c3ccc(CC(NC(=O)c4c[nH]c(-c5ccc(Cl)cc5)n4)C(=O)O)cc3F)no2)cc1` (stereo not shown) [Compound 2S], the activation at 3.16 µM is > 60%.

As for `CC(C)(C)OC(=O)Nc1ccc(-c2nc(-c3ccc(CC(NC(=O)c4c[nH]c(-c5ccc(Br)cn5)n4)C(=O)O)cc3F)no2)cc1` (stereo not shown) [Compound 2V], the activation at 3.16 µM is 40 to 60%.

As to `Cn1c(C(=O)NC(Cc2ccc(-c3noc(-c4ccc(NC(=O)OC(C)(C)C)cc4)n3)c(F)c2)C(=O)O)cnc1-c1ccc(Cl)cc1` (stereo not shown) [Compound 2Y], the activation at 3.16 µM was > 60%.

Regarding `CC(C)(C)OC(=O)Nc1ccc(-c2nc(-c3ccc(CC(NC(=O)c4cnn(-c5ccc(F)c(F)c5)c4)C(=O)O)cc3F)no2)cc1` (stereo not shown) [Compound 2Z], the activation at 3.16 µM is > 60%.

On to `CC(C)(C)OC(=O)Nc1ccc(-c2nc(-c3ccc(CC(NC(=O)c4cnn(-c5ccc(C(C)(C)C)cc5)c4)C(=O)O)cc3F)no2)cc1` (stereo not shown) [Compound 3A], for which the activation at 3.16 µM was > 60%.

With `Cc1ccc(-n2cc(C(=O)NC(Cc3ccc(-c4noc(-c5ccc(NC(=O)OC(C)(C)C)cc5)n4)c(F)c3)C(=O)O)cn2)cc1F` (stereo not shown) [Compound 3B], the activation at 3.16 µM is > 60%.

Consider `Cc1cc(Cn2cc(C(=O)NC(Cc3ccc(-c4noc(-c5ccc(NC(=O)OC(C)(C)C)cc5)n4)c(F)c3)C(=O)O)cn2)ccc1F` (stereo not shown) [Compound 3F], for which the activation at 3.16 µM is 20 to 40%.

For `Cc1ccc(S(=O)(=O)NC(C)(Cc2ccc(-c3noc(-c4ccc(NC(=O)OC(C)(C)C)cc4)n3)c(F)c2)C(=O)O)cc1` (stereo not shown) [Compound 3N], the activation at 3.16 µM fell in the range of 20 to 40%.

The assay is the same for the next values; noted with them: 6 h; concentration 10 μM; read-out: Activity (agonist), percentage of the activity of the control.
Take `CC(C)(C)OC(=O)Nc1ccc(-c2nc(-c3ccc(CC(NC(=O)c4cnn(-c5ccc(F)cc5)c4)C(=O)O)cc3F)no2)cc1` (stereo not shown) [Compound 2T]: the activation at 10 µM is > 60%.

With `CC(C)(C)OC(=O)Nc1ccc(-c2nc(-c3ccc(CC(NC(=O)c4cc(-c5ccc(F)cc5)no4)C(=O)O)cc3F)no2)cc1` (stereo not shown) [Compound 2U], the activation at 10 µM was > 60%.

In the case of `COc1ccc(Cn2cc(C(=O)NC(Cc3ccc(-c4noc(-c5ccc(NC(=O)OC(C)(C)C)cc5)n4)c(F)c3)C(=O)O)cn2)cc1` (stereo not shown) [Compound 2W], the activation at 10 µM was > 60%.

Take `Cc1ccc(-c2nc(C(=O)NC(Cc3ccc(-c4noc(-c5ccc(NC(=O)OC(C)(C)C)cc5)n4)c(F)c3)C(=O)O)co2)cc1` (stereo not shown) [Compound 2X]: the activation at 10 µM is > 60%.

As for `CC(C)(C)OC(=O)Nc1ccc(-c2nc(-c3ccc(CC(NC(=O)c4cn(Cc5ccc(F)c(F)c5)nn4)C(=O)O)cc3F)no2)cc1` (stereo not shown) [Compound 3C], the activation at 10 µM was > 60%.

`CC(C)c1ccc(-n2cnc(C(=O)NC(Cc3ccc(-c4noc(-c5ccc(NC(=O)OC(C)(C)C)cc5)n4)c(F)c3)C(=O)O)n2)cc1` (stereo not shown) [Compound 3D]: the activation at 10 µM was > 60%.

`CC(C)(C)OC(=O)Nc1ccc(-c2nc(-c3ccc(CC(NC(=O)c4coc(-c5ccc(Cl)cc5)n4)C(=O)O)cc3F)no2)cc1` (stereo not shown) [Compound 3H]: the activation at 10 µM fell in the range of 20 to 40%.

In the case of `CC(C)(C)OC(=O)Nc1ccc(-c2nc(-c3ccc(CC(NC(=O)c4ncn(-c5ccc(C(C)(C)C)cc5)n4)C(=O)O)cc3F)no2)cc1` (stereo not shown) [Compound 3I], the activation at 10 µM fell in the range of 40 to 60%.

Take `CC(C)(C)OC(=O)Nc1ccc(-c2nc(-c3ccc(CC(NC(=O)c4ccn(-c5ccc(C(F)(F)F)cc5)n4)C(=O)O)cc3F)no2)cc1` (stereo not shown) [Compound 3J]: the activation at 10 µM fell in the range of 40 to 60%.

Regarding `CC(C)(C)OC(=O)Nc1ccc(-c2nc(-c3ccc(CC(Nc4ccnc(N5CCCCC5)n4)C(=O)O)cc3F)no2)cc1` (stereo not shown) [Compound 3M, 3-{4-[5-(4-tert-Butoxycarbonylamino-phenyl)-[1,2,4]oxadiazol-3-yl]-3-fluoro-phenyl}-2-(2-piperidin-1-yl-pyrimidin-4-ylamino)-propionic acid], the activation at 10 µM was 20 to 40%.

Consider `CC(C)(C)OC(=O)Nc1ccc(-c2nc(-c3ccc(CC(NC(=O)c4cccc(Nc5ccccc5)c4)C(=O)O)cc3F)no2)cc1` (stereo not shown) [Compound 3T], for which the activation at 10 µM lay within 40 to 60%.

The assay is the same for the next values; noted with them: concentration 10 μM.
`Cc1ccc(-n2cc(C(=O)NC(Cc3ccc(-c4noc(-c5ccc(NC(=O)OC(C)(C)C)cc5)n4)c(F)c3)C(=O)O)cn2)cc1F` (stereo not shown) [Compound 2P, 3-(4-(5-(4-((tert-butoxcarbonyl)amino)phenyl)-1,2,4-oxadiazol-3-yl)-3-fluorophenyl)-2-(1-(3-fluoro-4-methylphenyl)-1H-pyrazole-4-carboxamido)propanoic acid]: the “Activity (agonist), percentage of the activity of the control” value is recorded as “A (A represents a value no smaller than 60%)”.
